9 compounds from PubChem BioAssay (NCI) can be followed below.

Test systems include HCT-116 colon; OVCAR-4 ovarian; CCRF-CEM leukemia; T-47D breast; K-562 leukemia; SN12C renal; NCI-H23 lung; UACC-62 melanoma; U251 CNS; UACC-257 melanoma.
Common to all, as to experiment: DTP human tumour cell line panel, 48 h

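Step 1: Grow cells in 96-well plates. Step 2: Expose to compound for 48 hours at 5 concentrations. Step 3: Interpolate endpoints linearly; if unreached, use highest concentration. Here, GI50 denotes the concentration required for 50% inhibition of growth. TGI denotes the concentration required for complete inhibition of growth.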

The GI50 is the concentration at which growth is held to half of that of the control. One may read the TGI as the concentration at which net growth stops. A higher TGI goes with lower sensitivity of the cells. As for `COC(=O)[C@]12CC[C@@H](C)[C@H](C)[C@@H]1C1=CC[C@@H]3[C@@]4(C)C[C@@H](OC(=O)/C=C/c5ccccc5)[C@H](O)[C@@](C)(CO)[C@@H]4[C@H](O)C[C@@]3(C)[C@]1(C)CC2`, the GI50 in the assay on HCT-116 colon is 1.95 µM; with OVCAR-4 ovarian it was 3.23 µM; with CCRF-CEM leukemia, 2.88 µM; with T-47D breast it was 2.34 µM; with K-562 leukemia it was 2.45 µM; in the assay with SN12C renal it was 1.83 µM. Besides, the GI50 in the assay with NCI-H23 lung was 2.8 µM; with UACC-62 melanoma it was 2.83 µM; in the assay with U251 CNS, 1.86 µM. For the same compound, the TGI with HCT-116 colon was 3.79 µM; in the assay on OVCAR-4 ovarian it was 13.4 µM; in the assay on CCRF-CEM leukemia, 10.4 µM; in the assay with T-47D breast it was 10.9 µM; in the assay on K-562 leukemia, 6.05 µM; in the assay with SN12C renal, 3.6 µM. The TGI in the assay on NCI-H23 lung was found to be 10.2 µM; in the assay with UACC-62 melanoma, 11.4 µM; with U251 CNS, 4.18 µM.
As to `C=C1C(=O)O[C@H]2[C@H](OC(C)=O)[C@@H](C)CCCC3(C)OC3CCC3(CO3)[C@H](O)C[C@@H]12` (stereo not given in full), the GI50 in the assay on HCT-116 colon was 3.7 µM; in the assay with UACC-257 melanoma it was 17.3 µM; in the assay with OVCAR-4 ovarian, 3.77 µM; with CCRF-CEM leukemia, 2.44 µM; with T-47D breast it was 13.7 µM; with SN12C renal it was 10.4 µM. Moreover, the GI50 with UACC-62 melanoma is 11.8 µM; in the assay with U251 CNS, 10.4 µM. The total growth inhibition concentration (TGI) in the assay with HCT-116 colon stood at 13.1 µM; in the assay on UACC-257 melanoma, 49.9 µM; with OVCAR-4 ovarian it was 53.8 µM; in the assay with CCRF-CEM leukemia, 7.27 µM; with T-47D breast, 62.5 µM; in the assay on SN12C renal, 24.8 µM. Further, the TGI in the assay on UACC-62 melanoma was determined as 24.1 µM; with U251 CNS, 22.1 µM.
Regarding `COc1ccc(/C=C2\COc3ccc(O)c(O)c3C2=O)c(OC)c1OC`, the GI50 with HCT-116 colon is 1.75 µM; with UACC-257 melanoma it was 2.88 µM; in the assay on OVCAR-4 ovarian it was 2.74 µM; with T-47D breast, 2.58 µM; in the assay with K-562 leukemia, 2.11 µM; with SN12C renal, 2.55 µM. The GI50 was 3.22 µM in the assay with NCI-H23 lung, 1.88 µM with UACC-62 melanoma and 2.66 µM in the assay on U251 CNS. The TGI in the assay on HCT-116 colon is 3.96 µM; with UACC-257 melanoma it was 18.3 µM; in the assay with OVCAR-4 ovarian, 17.8 µM; in the assay on T-47D breast it was 9.08 µM; in the assay with K-562 leukemia it was over 100 µM; in the assay on SN12C renal it was 8.95 µM. The TGI was determined as 14.5 µM in the assay on NCI-H23 lung, 3.88 µM in the assay with UACC-62 melanoma and 11.2 µM in the assay with U251 CNS.
As for `CC(=O)CC/C=C(\C)[C@H](O)[C@H](C)C(=O)O[C@H]1C[C@H](C)C=C2C=C[C@@]3(C)O[C@@H](O)CC(=O)[C@]3(C)[C@H]21`, the GI50 with HCT-116 colon is 0.307 µM; with UACC-257 melanoma, 0.589 µM; in the assay with OVCAR-4 ovarian, 1.78 µM; in the assay on CCRF-CEM leukemia, 0.514 µM; in the assay with T-47D breast it was 0.309 µM; with SN12C renal it was 0.324 µM. Further, the figures for the GI50 in the assay with NCI-H23 lung, in the assay on UACC-62 melanoma and with U251 CNS were 0.384 µM, 0.618 µM and 0.384 µM, respectively. Also, the TGI with HCT-116 colon was found to be 1.89 µM; with UACC-257 melanoma, 4.48 µM; in the assay with OVCAR-4 ovarian it was 6.05 µM; in the assay with CCRF-CEM leukemia, 4.83 µM; in the assay with T-47D breast it was 2.54 µM; with SN12C renal, 2.43 µM. The TGI worked out at 2.44 µM in the assay on NCI-H23 lung, 2.14 µM with UACC-62 melanoma and 2.8 µM in the assay on U251 CNS.
As for `CCCCCCn1c(SC)nc(COC(=O)NC)c1COC(=O)NC`, the TGI in the assay on HCT-116 colon was 31.7 µM; with UACC-257 melanoma it was 37.8 µM; with OVCAR-4 ovarian it was 21.4 µM; in the assay on T-47D breast, 35 µM; in the assay on K-562 leukemia, over 100 µM; with SN12C renal, 31.3 µM. The TGI in the assay with NCI-H23 lung worked out at 41.2 µM; with UACC-62 melanoma, 28.2 µM.
With `O=C(O)c1cc(=O)cc(C(=O)O)o1`, the GI50 in the assay with HCT-116 colon, in the assay on UACC-257 melanoma, in the assay with OVCAR-4 ovarian, in the assay with CCRF-CEM leukemia, in the assay with T-47D breast and in the assay with K-562 leukemia was over 100 µM in each case. For the same compound, the GI50 in the assay with NCI-H23 lung, with UACC-62 melanoma and in the assay on U251 CNS was over 100 µM in each case. For the same compound, the TGI in the assay with HCT-116 colon, with UACC-257 melanoma, in the assay on OVCAR-4 ovarian, in the assay on CCRF-CEM leukemia, in the assay on T-47D breast and with K-562 leukemia was over 100 µM throughout. Further, the TGI in the assay with NCI-H23 lung, in the assay with UACC-62 melanoma and with U251 CNS was over 100 µM each time.
As to `COc1ccc(C2CC(c3ccc(Nc4ccnc5cc(Cl)ccc45)cc3)=NN2C=O)cc1` (stereo not given), the GI50 is 9.97 µM with HCT-116 colon; 43.9 µM in the assay on UACC-257 melanoma; 13.4 µM with OVCAR-4 ovarian; 2.71 µM in the assay with CCRF-CEM leukemia; 1.38 µM in the assay with T-47D breast; 12.6 µM in the assay on SN12C renal. Also, the GI50 was 50.6 µM in the assay with NCI-H23 lung, 5.99 µM with UACC-62 melanoma and 15 µM in the assay on U251 CNS. Further, the TGI was over 100 µM in the assay with HCT-116 colon; over 100 µM with UACC-257 melanoma; over 100 µM in the assay with OVCAR-4 ovarian; over 100 µM in the assay on CCRF-CEM leukemia; 15 µM with T-47D breast; over 100 µM in the assay with SN12C renal. Also, the TGI is over 100 µM in the assay with NCI-H23 lung, 49.8 µM in the assay on UACC-62 melanoma and over 100 µM with U251 CNS.
As for `COC(=O)c1ccc(/C=C(\c2ccc([N+](=O)[O-])o2)S(=O)(=O)c2ccc(NC(C)=O)cc2)o1`, the total growth inhibition concentration (TGI) was 8.39 µM in the assay on HCT-116 colon; 4.54 µM with UACC-257 melanoma; 4.67 µM with OVCAR-4 ovarian; over 100 µM with T-47D breast; 18.1 µM with K-562 leukemia; 1.36 µM in the assay on SN12C renal. In addition, the TGI in the assay with NCI-H23 lung came to 28.3 µM; in the assay with UACC-62 melanoma, 4.31 µM; with U251 CNS it was 28.8 µM.
As for `Cc1cc(N2CCCCC2)nc(NC2CCCC(Nc3ccnc4cc(Cl)ccc34)C2)n1` (stereo not given), the GI50 in the assay with HCT-116 colon was 1.02 µM; in the assay with UACC-257 melanoma, 1.92 µM; in the assay with OVCAR-4 ovarian, 1.4 µM; in the assay with CCRF-CEM leukemia, 1.48 µM; with T-47D breast, 1.51 µM; in the assay on K-562 leukemia, 0.316 µM. Besides, the TGI turned out to be 2.21 µM in the assay with HCT-116 colon; 3.55 µM with UACC-257 melanoma; 3.29 µM in the assay with OVCAR-4 ovarian; 10.6 µM with CCRF-CEM leukemia; 4.07 µM with T-47D breast; 1.23 µM in the assay on K-562 leukemia.
